We go through two molecules from paper PMC9556435 (2022).

For test [1], the system named is KRAS-G4 (Pu24m1) (DNA, G4) TGAGGGCGGTGTGGGAATAGGGAA
As to the kind of experiment: fluorescence titration. To be noted: 50 mM K+; pH 7; 0.2 μM compound fixed, titrated with DNA; 2:1 binding equation.

Test [2] concerns VEGF-G4 (DNA, G4) CAGGGCGGGCCTTGGGCGGGAT
As to the kind of experiment: 1H NMR titration. To be noted: 50 mM K+; 150 μM DNA, pH 7, 25 °C, DMSO-d6 < 1.5%.

In test [3] the test system is KRAS-G4 (Pu24m1) (DNA, G4) TGAGGGCGGTGTGGGAATAGGGAA
As to the kind of experiment: NMR solution structure. As to conditions: 50 mM K+; 1.5 mM DNA, pH 7, DMSO-d6 < 3.5%; stacks on both outer tetrads.

Test [4] shares this test system. As to the kind of experiment: CD melting (264 nm). As to conditions: 15 mM K+; potassium phosphate/KCl, pH 7; 20 μM DNA, 2 equivalents compound.
Test [5] relates to MYC-G4 (DNA, G4) TGAGGGTGGGTAGGGTGGGTAA
As to the kind of experiment: 1H NMR titration. To be noted: 50 mM K+; 150 μM DNA, pH 7, 25 °C, DMSO-d6 < 1.5%.

What is called Kd is the constant that tells how readily two partners part at equilibrium. High values mean weaker binding, low ones tighter binding. As a reminder, the ΔTm is the change in melting temperature against a reference sample. With `COc1ccc2cc3[n+](cc2c1OC)CCc1cc2c(cc1-3)OCO2`, in test [1], the dissociation constant (Kd) was determined as 550 nM. In addition, the binding entry in test [2], in test [3] and in test [5] was “yes” each time. For the same molecule, the thermal shift (ΔTm) in test [4] stood at 15 °C.
In test [1], `c1c2c(cc3c1OCO3)-c1cc3ccc4c(c3c[n+]1CC2)OCO4` returned a Kd of 500 nM. In addition, the binding result in test [2], in test [3] and in test [5] was “yes” throughout. Besides, the ΔTm in test [4] amounted to 19 °C.
